Assay results taken from patent publication US12589158B2 (priority 2022, dated 2026).
Where two headings read alike, the source gives them in different places.

Assays:
[1] = Pharmacokinetics following single administration in SD rat; parameters: species or system SD rats; conditions: in vivo, sc, 50 nmol/kg
Method: The compound is administrated to male SD rats (230-268 g, n=3) at a dose of 50.0 nmol/kg (s.c.) or 25.0 nmol/kg (i.v.). […] 30.0 μL of thawed plasma sample is taken. 150 μL of acetonitrile solution (containing 5 ng mL^−1 Verapamil, 50 ng·mL^−1 Glibenclamide, 200 ng·mL^−1 Tolbutamide and 200 ng·mL^−1 Diclofenac) are added to precipitate protein. The mixture is vortexed for 5 minutes, and centrifuged at 3700 rpm for 8 minutes. 70.0 μL of the supernatant is taken, into which 70.0 μL of 0.5% aqueous formic acid solution is added. The mixture is vortexed for 5 minutes. 15 μL of the mixture solution is sampled and injected into the LC-MS/MS to determine the drug concentration in plasma. 20.0 μL of thawed plasma sample is taken. 60 μL of acetonitrile solution (containing 5 ng mL^−1 Verapamil, 50 ng·mL^−1 Glibenclamide, 200 ng·mL^−1 Tolbutamide and 200 ng·mL^−1 Diclofenac) are added to precipitate protein. […] The mixture is vortexed for 10 minutes. 10.0 μL of the mixture solution is sampled and injected into the LC-MS/MS to determine the drug concentration in plasma. 30.0 μL of thawed plasma sample is taken. 150 μL of acetonitrile solution (containing 5 ng mL^−1 Verapamil, 50 ng mL^−1 Glibenclamide, 200 ng·mL^−1 Tolbutamide and 200 ng·mL^−1 Diclofenac) are added to precipitate protein. The mixture is vortexed for 5 minutes, and centrifuged at 3700 rpm for 8 minutes. 70.0 μL of the supernatant is taken, into which 70.0 μL of 0.5% aqueous formic acid solution is added. The mixture is vortexed for 5 minutes. 10.0 μL of the mixture solution is sampled and injected into the LC-MS/MS to determine the drug concentration in plasma.

[2] = Pharmacokinetics in cynomolgus monkeys; conditions: cynomolgus monkey, in vivo, sc, 25 nmol/kg
Method: After subcutaneous or intravenous administration to cynomolgus monkeys, plasma is collected and the drug concentration in plasma is determined to illustrate the in vivo pharmacokinetic properties of the compound according to the present invention. The compound is dissolved in 1.4% PG in 8 mM Na2HPO4 Buffer (pH 7.39), and filtered through a filter membrane (PTFE, 0.45 μm) to obtain 25 and 12.5 nmol/mL solution of the compound respectively. The obtained solutions are administered to cynomolgus monkeys (4-8 kg) at a dose of 25 nmol/kg subcutaneously (s.c.) or 12.5 nmol/kg intravenously (i.v.). […] The blood samples are centrifuged at 2200 g for 10 minutes to obtain a plasma, which is stored at −90° C. to −60° C. for further analysis and assay.
70.0 μL of thawed plasma sample is taken. 70 μL of acetonitrile (containing 1 ng/ml of the internal standard) is added to precipitate protein. The mixture is vortexed for 1 minute, and centrifuged at 14000 rpm for 10 minutes. 60.0 μL of the supernatant is taken, into which 60.0 μL of 0.5% aqueous formic acid solution is added. The mixture is vortexed for 5 minutes. 10 μL of the mixture solution is sampled and injected into the LC-MS/MS to determine the drug concentration in plasma.
Based on the drug concentration in plasma of the compounds in the cynomolgus monkeys, the pharmacokinetic parameters are calculated by applying the software Winnolin 8.2 in a non-compartmental model, and the results are shown in Table 9 and Table 10 below.

[3] = Pharmacokinetics in C57 mice; conditions: mouse, in vivo
Method: After subcutaneous or intravenous administration to C57 mice, plasma is collected and the drug concentration in plasma is determined to illustrate the in vivo pharmacokinetic properties of the compound according to the present invention. […] 20.0 μL of thawed plasma sample is taken. 20 μL of 50% aqueous methanol solution (containing 100 ng mL^−1 internal standard) and 60 μL of acetonitrile are added sequentially to precipitate protein. The mixture is vortexed for 5 minutes, and centrifuged at 3700 rpm for 8 minutes. 50.0 μL of the supernatant is taken, into which 50.0 μL of 0.5% aqueous formic acid solution is added. The mixture is vortexed for 5 minutes. 50 μL of the mixture solution is sampled and injected into the LC-MS/MS to determine the drug concentration in plasma.

SD male rats = format: in vivo
Method: (§1) 77 SD male rats (SPF grade) are selected and randomly divided into 10 groups based on body weight. Group 1 is the vehicle control group, including 5 animals. […] Group 5 to Group 7 are the groups administrated with the test substance 1; and Group 8 to Group 10 are the groups administrated with the test substance 2, each group including 8 animals, wherein 5 animals for primary test, and 3 animals for toxicokinetics test, and the administration dose is 1, 3 and 10 mg/kg respectively. Each of the above groups is continuously administered twice a week for 2 weeks (administrating at Day 1, Day 5, Day 8, Day 12 and Day 15).
(§2) During the experiment, the cage condition monitoring, detailed clinical observations, determination of the food consumption, determination of body weight, measurement of the blood biochemical and hematology indicator, investigation of the gross anatomy, weighing of the organ, studying on toxicokinetic are performed on all the groups of the animals.
(§3) Original data during each time period is tabulated. The average values and standard deviations and/or group change are calculated for each assay endpoint based on the group and sex. For each endpoint, the administrated group will be compared with the control group in the following aspect. A logarithmic conversion is performed to the endpoint data as desired prior to the start of the specific analyses.

[4] = format: in vivo; conditions: rat, in vivo, male SD rats
Method: as §1, §2, §3

CC[C@H](C)[C@H](NC(=O)C(C)(C)NC(=O)[C@H](Cc1ccc(O)cc1)NC(=O)[C@H](CC(=O)O)NC(=O)[C@H](CO)NC(=O)[C@@H](NC(=O)C(C)(Cc1ccccc1)NC(=O)[C@@H](NC(=O)CNC(=O)[C@H](CCC(=O)O)NC(=O)C(C)(C)NC(=O)[C@@H](N)Cc1ccc(O)cc1)[C@@H](C)O)[C@@H](C)O)C(=O)NC(C)(C)C(=O)N[C@@H](CC(C)C)C(=O)N[C@@H](CC(=O)O)C(=O)N[C@@H](CCCCN)C(=O)N[C@@H](CCC(N)=O)C(=O)N[C@@H](C)C(=O)N[C@@H](CCC(N)=O)C(=O)N[C@@H](C)C(=O)N[C@@H](CCC(=O)O)C(=O)N[C@@H](Cc1ccccc1)C(=O)N[C@H](C(=O)N[C@@H](CCCCN)C(=O)N[C@@H](Cc1c[nH]c2ccccc12)C(=O)N[C@@H](CC(C)C)C(=O)N[C@@H](CC(C)C)C(=O)N[C@@H](CCCCNC(=O)COCCOCCNC(=O)COCCOCCNC(=O)CC[C@H](NC(=O)CCCCCCCCCCCCCCCCCCCCC(=O)O)C(=O)O)C(=O)NCC(=O)NCC(=O)N1CCC[C@H]1C(=O)N[C@@H](CO)C(=O)N[C@@H](CO)C(=O)NCC(=O)N[C@@H](C)C(=O)N1CCC[C@H]1C(=O)N1CCC[C@H]1C(=O)N1CCC[C@H]1C(=O)N[C@@H](CO)C(=O)N[C@@H](CCCCN)C(N)=O)C(C)C (stereo partly drawn) [P017]
MRT inf [1]: 36.9 ± 3.46 h
MRT last [1]: 27.9 ± 2.99 h
MRT inf [2]: 77.8 ± 12.2 h
MRT last [2]: 76.4 ± 12.7 h

CC[C@H](C)[C@H](NC(=O)C(C)(C)NC(=O)[C@H](Cc1ccc(O)cc1)NC(=O)[C@H](CC(=O)O)NC(=O)[C@H](CO)NC(=O)[C@@H](NC(=O)C(C)(Cc1ccccc1)NC(=O)[C@@H](NC(=O)CNC(=O)[C@H](CCC(=O)O)NC(=O)C(C)(C)NC(=O)[C@@H](N)Cc1ccc(O)cc1)[C@@H](C)O)[C@@H](C)O)C(=O)NC(C)(C)C(=O)N[C@@H](CC(C)C)C(=O)N[C@@H](CC(=O)O)C(=O)N[C@@H](CCCCN)C(=O)N[C@@H](CCC(N)=O)C(=O)N[C@@H](C)C(=O)N[C@@H](CCC(N)=O)C(=O)N[C@@H](C)C(=O)N[C@@H](CCC(=O)O)C(=O)N[C@@H](Cc1ccccc1)C(=O)N[C@H](C(=O)N[C@@H](CCCCN)C(=O)N[C@@H](Cc1c[nH]c2ccccc12)C(=O)N[C@@H](CC(C)C)C(=O)N[C@@H](CC(C)C)C(=O)N[C@@H](CCCCNC(=O)COCCOCCNC(=O)COCCOCCNC(=O)COCCOCCNC(=O)CC[C@H](NC(=O)CCCCCCCCCCCCCCCCCCCCC(=O)O)C(=O)O)C(=O)NCC(=O)NCC(=O)N1CCC[C@H]1C(=O)N[C@@H](CO)C(=O)N[C@@H](CO)C(=O)NCC(=O)N[C@@H](C)C(=O)N1CCC[C@H]1C(=O)N1CCC[C@H]1C(=O)N1CCC[C@H]1C(=O)N[C@@H](CO)C(=O)N[C@@H](CCCCN)C(N)=O)C(C)C (stereo partly drawn) [P020]
MRT inf ([3]; iv): 21.8 h
MRT last ([3]; iv): 16.8 h
MRT inf ([3]; sc): 29.4 h
MRT last ([3]; sc): 21.8 h
MRT inf [1]: 37.1 ± 0.636 h
MRT last [1]: 29.5 ± 4.68 h
MRT inf [2]: 103 ± 13.1 h
MRT last [2]: 97.5 ± 9.67 h

CC[C@H](C)[C@H](NC(=O)C(C)(C)NC(=O)[C@H](Cc1ccc(O)cc1)NC(=O)[C@H](CC(=O)O)NC(=O)[C@H](CO)NC(=O)[C@@H](NC(=O)C(C)(Cc1ccccc1)NC(=O)[C@@H](NC(=O)CNC(=O)[C@H](CCC(=O)O)NC(=O)C(C)(C)NC(=O)[C@@H](N)Cc1ccc(O)cc1)[C@@H](C)O)[C@@H](C)O)C(=O)NC(C)(C)C(=O)N[C@@H](CC(C)C)C(=O)N[C@@H](CC(=O)O)C(=O)N[C@@H](CCCCN)C(=O)N[C@@H](CCC(N)=O)C(=O)N[C@@H](C)C(=O)N[C@@H](CCC(N)=O)C(=O)N[C@@H](C)C(=O)N[C@@H](CCC(=O)O)C(=O)N[C@@H](Cc1ccccc1)C(=O)N[C@H](C(=O)N[C@@H](CCCCNC(=O)COCCOCCNC(=O)COCCOCCNC(=O)CC[C@H](NC(=O)CCCCCCCCCCCCCCCCCCCCC(=O)O)C(=O)O)C(=O)N[C@@H](Cc1c[nH]c2ccccc12)C(=O)N[C@@H](CC(C)C)C(=O)N[C@@H](CC(C)C)C(=O)N[C@@H](CCCCN)C(=O)NCC(=O)NCC(=O)N1CCC[C@H]1C(=O)N[C@@H](CO)C(=O)N[C@@H](CO)C(=O)NCC(=O)N[C@@H](C)C(=O)N1CCC[C@H]1C(=O)N1CCC[C@H]1C(=O)N1CCC[C@H]1C(=O)N[C@@H](CO)C(=O)N[C@@H](CCCCN)C(N)=O)C(C)C (stereo partly drawn) [P014]
MRT inf ([3]; iv): 19.2 h
MRT last ([3]; iv): 15.7 h
MRT inf ([3]; sc): 30.3 h
MRT last ([3]; sc): 22.9 h
MRT inf [1]: 30 ± 1.01 h
MRT last [1]: 26.2 ± 0.781 h
MRT inf [2]: 77.4 ± 13.5 h
MRT last [2]: 74.2 ± 13.8 h
Toxicokinetic: Cmax and AUC versus dose (SD male rats; male SD rats, 1, 3, 10 mg/kg): increase nearly proportionally to the dose
Toxicokinetic: accumulation (SD male rats; male SD rats, continuously administered twice a week for 2 weeks): no substantial accumulation
Safety Window (based on dosage) (SD male rats; rat MTD for 2 weeks vs efficacy dose in db/db mice): 1319
Safety Window (based on exposure AUClast) (SD male rats; rat, in vivo): 596
dose at which decrease of the body weight is observed after the first administration (SD male rats; rat, in vivo): ≥ 1 mg/kg
MTD ([4]; MTD for 2 weeks, twice a week): 1.98 µmol/kg
MTD ([4]; continuously administered twice a week for 2 weeks): > 10 mg/kg
